Assay results taken from patent US20250122191A1, “COMPOUNDS AS BCL-2 INHIBITORS” (Fochon Biosciences, Ltd, priority 2021, published 2025).

What was measured:
[1] = Pharmacokinetics assay in rats; format: in vivo; conditions: male Sprague-Dawley rats, po, 5 mg/kg, plasma; for AUC(0-t) / half-life / Cmax: rat; for Cmax: read-out: Cmax/C0
Procedure: The purpose of this study was to determine the pharmacokinetics of Examples in male Sprague-Dawley rats (Supplied by Beijing Vital River Laboratory Animal Technology Co., Ltd.) following a single intravenous bolus injection at 1 mg/kg and oral gavage (PO) administration at 5 mg/kg.
Animals in Group 1 were administered with Examples by single intravenous bolus injection at 1 mg/kg, which was formulated in 10% DMSO (Sigma, Batch #LPCOS181): 60% PEG400 (Sigma, Batch #MKCH6281): 30% water, pH 5-6 at 1 mg/mL as a solution. Animals in Group 2 were administered with Examples by single oral gavage (PO) administration at 5 mg/kg, which was formulated in 10% DMSO (Sigma, Batch #BCCD6641): 60% PEG400 (Sigma, Batch #MKCL4921): 30% water at 1 mg/mL as a solution. Blood samples were collected at 0.083, 0.25, 0.5, 1, 2, 4, 8, 12 and 24 hours post-dose. Concentrations of Examples in plasma were determined by LC/MS/MS (LC: Waters UPLC; MS: Triple Quad 6500 plus).

[2] = tested on: Toledo cells; experiment: Cell proliferation assay (MTS), Toledo cells; format: cell-based; conditions: Homo sapiens, 72 h
In short: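 Toledo cells (RPMI-1640, 10% FBS) seeded at 30000 cells/well, rested 4 h, then exposed 72 h at 37 °C, 5% CO2 to compound at nine final concentrations, 1.5–10000 nM. Viability by MTS (2 h), absorbance at 490 nm. IC50 from the concentration-response.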

[3] = tested on: RS4;11-BCL-2 F104L cells; experiment: Cell proliferation assay (MTS), RS4;11-BCL-2 F104L engineered cells; format: cell-based; conditions: Homo sapiens, 120 h, read-out: RS4, 11 BCL2-F104L IC50
In short: (§1)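 Cells were plated, allowed to settle 4 h (G101V, F104L) or 24 h (D103E, D103Y), and treated with serially diluted compound (10000 down to 1.5 nM). After 120 h or 72 h respectively at 37 °C, MTS was added for 2 h and absorbance at 490 nm gave IC50 values.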

[4] = tested on: RS4;11-BCL-2 G101V cells; experiment: Cell proliferation assay (MTS), RS4;11-BCL-2 G101V engineered cells; format: cell-based; conditions: Homo sapiens, 120 h, read-out: RS4, 11 BCL2-G101V IC50
In short: as §1

[5] = tested on: RS4;11-BCL-2 D103E cells; experiment: Cell proliferation assay (MTS), RS4;11-BCL-2 D103E engineered cells; format: cell-based; conditions: Homo sapiens, 72 h, read-out: RS4, 11 BCL2-D103E IC50
In short: as §1

Row | Compound | AUC(0-t) [1] [ng·h/mL] | half-life [1] [h] | Cmax [1] [ng/mL] | IC50 [2] [nM] | IC50 [3] [nM] | IC50 [4] [nM] | AUClast [1] [ng·h/mL] | Cmax/C0 [1] [ng/mL] | T1/2 [1] [h] | IC50 [5] [nM]
1 | CCOc1nc2[nH]cc(F)c2cc1Oc1cc(N2CCC3(CC2)CC(N2CCN(Cc4ccc(F)c(F)c4)C[C@H]2c2ccccc2C(C)C)C3)ccc1C(=O)NS(=O)(=O)c1cnc(NC[C@H]2CC[C@](C)(O)CC2)c([N+](=O)[O-])c1 [Example 4, 4-(2-((R)-4-(3,4-difluorobenzyl)-2-(2-isopropylphenyl)piperazin-1-yl)-7-azaspiro[3.5]nonan-7-yl)-2-((6-ethoxy-3-fluoro-1H-pyrrolo[2,3-b]pyridin-5-yl)oxy)-N-((6-((((1r,4r)-4-hydroxy-4-methylcyclohexyl)methyl)amino)-5-nitropyridin-3-yl)sulfonyl)benzamide] | 1740 | 9.57 | 176 | 1 | 1 | 1 |  |  |  | 
2 | COc1nc2[nH]cc(F)c2cc1Oc1cc(N2CCC3(CC2)CC(N2CCN(Cc4ccc(F)c(F)c4)C[C@H]2c2ccccc2C(C)C)C3)ccc1C(=O)NS(=O)(=O)c1cnc(NC[C@H]2CC[C@](C)(O)CC2)c([N+](=O)[O-])c1 [Example 3, 4-(2-((R)-4-(3,4-difluorobenzyl)-2-(2-isopropylphenyl)piperazin-1-yl)-7-azaspiro[3.5]nonan-7-yl)-2-((3-fluoro-6-methoxy-1H-pyrrolo[2,3-b]pyridin-5-yl)oxy)-N-((6-((((1r,4r)-4-hydroxy-4-methylcyclohexyl)methyl)amino)-5-nitropyridin-3-yl)sulfonyl)benzamide] | 4650 | 9.21 | 382 | 1 | 1 | 1 |  |  |  | 
3 | CC(C)c1ccccc1[C@@H]1CN(C)CCN1C1CC2(CCN(c3ccc(C(=O)NS(=O)(=O)c4cnc(NCC5CCC(C)(O)CC5)c([N+](=O)[O-])c4)c(Oc4cnc5[nH]ccc5c4)c3)CC2)C1 (stereo partly drawn) [Reference Compound 1, (R)-2-((1H-pyrrolo[2,3-b]pyridin-5-yl)oxy)-N-((6-(((4-hydroxy-4-methylcyclohexyl)methyl)amino)-S-nitropyridin-3-yl)sulfonyl)-4-(2-(2-(2-isopropylphenyl)-4-methylpiperazin-1-yl)-7-azaspiro[3.5]nonan-7-yl)benzamide, reference compound] |  |  |  |  |  |  | 128 | 49.9 | 1.16 | 
4 | CC(C)c1ccccc1[C@@H]1CN(Cc2ccc(C#N)cc2)CCN1C1CC2(CCN(c3ccc(C(=O)NS(=O)(=O)c4cnc(NC[C@H]5CC[C@](C)(O)CC5)c([N+](=O)[O-])c4)c(Oc4cnc5[nH]cc(F)c5c4)c3)CC2)C1 [Example 237, 4-(2-((R)-4-(4-cyanobenzyl)-2-(2-isopropylphenyl)piperazin-1-yl)-7-azaspiro[3.5]nonan-7-yl)-2-((3-fluoro-1H-pyrrolo[2,3-b]pyridin-5-yl)oxy)-N-((6-((((1r,4r)-4-hydroxy-4-methylcyclohexyl)methyl)amino)-5-nitropyridin-3-yl)sulfonyl)benzamide] |  |  |  | 1 | 1 | 1 |  |  |  | 1
5 | COc1nc2[nH]cc(F)c2cc1Oc1cc(N2CCC3(CC2)CC(N2CCN(Cc4ccc(OC)c5oc(C)nc45)C[C@H]2c2ccccc2C(C)C)C3)ccc1C(=O)NS(=O)(=O)c1cnc(NC[C@H]2CC[C@](C)(O)CC2)c([N+](=O)[O-])c1 [Example 245, 2-((3-fluoro-6-methoxy-1H-pyrrolo[2,3-b]pyridin-5-yl)oxy)-N-((6-((((1r,4r)-4-hydroxy-4-methylcyclohexyl)methyl)amino)-5-nitropyridin-3-yl)sulfonyl)-4-(2-((R)-2-(2-isopropylphenyl)-4-((7-methoxy-2-methylbenzo[d]oxazol-4-yl)methyl)piperazin-1-yl)-7-azaspiro[3.5]nonan-7-yl)benzamide] |  |  |  | 1 | 1 | 1 |  |  |  | 1
6 | CC(C)c1ccccc1[C@@H]1CN(Cc2ccc3c(c2)CCO3)CCN1C1CC2(CCN(c3ccc(C(=O)NS(=O)(=O)c4cnc(NC[C@H]5CC[C@](C)(O)CC5)c([N+](=O)[O-])c4)c(Oc4cnc5[nH]cc(F)c5c4)c3)CC2)C1 [Example 324, 4-(2-((R)-4-((2,3-dihydrobenzofuran-5-yl)methyl)-2-(2-isopropylphenyl)piperazin-1-yl)-7-azaspiro[3.5]nonan-7-yl)-2-((3-fluoro-1H-pyrrolo[2,3-b]pyridin-5-yl)oxy)-N-((6-((((1r,4r)-4-hydroxy-4-methylcyclohexyl)methyl)amino)-5-nitropyridin-3-yl)sulfonyl)benzamide] |  |  |  | 1 | 1 | 1 |  |  |  | 1
7 | COc1cc(CN2CCN(C3CC4(CCN(c5ccc(C(=O)NS(=O)(=O)c6cnc(NC[C@H]7CC[C@](C)(O)CC7)c([N+](=O)[O-])c6)c(Oc6cc7c(F)c[nH]c7nc6OC)c5)CC4)C3)[C@H](c3ccccc3C(C)C)C2)ccc1C1CC1 [Example 5, 4-(2-((R)-4-(4-cyclopropyl-3-methoxybenzyl)-2-(2-isopropylphenyl)piperazin-1-yl)-7-azaspiro[3.5]nonan-7-yl)-2-((3-fluoro-6-methoxy-1H-pyrrolo[2,3-b]pyridin-5-yl)oxy)-N-((6-((((1r,4r)-4-hydroxy-4-methylcyclohexyl)methyl)amino)-5-nitropyridin-3-yl)sulfonyl)benzamide] | 2260 | 24.4 | 37.1 | 1 | 1 | 1 |  |  |  | 
8 | CCOc1nc2[nH]cc(F)c2cc1Oc1cc(N2CCC3(CC2)CC(N2CCN(Cc4ccc(OC)cc4)C[C@H]2c2ccccc2C(C)C)C3)ccc1C(=O)NS(=O)(=O)c1cnc(NC[C@H]2CC[C@](C)(O)CC2)c([N+](=O)[O-])c1 [Example 2, 2-((6-ethoxy-3-fluoro-1H-pyrrolo[2,3-b]pyridin-5-yl)oxy)-N-((6-((((1r,4r)-4-hydroxy-4-methylcyclohexyl)methyl)amino)-5-nitropyridin-3-yl)sulfonyl)-4-(2-((R)-2-(2-isopropylphenyl)-4-(4-methoxybenzyl)piperazin-1-yl)-7-azaspiro[3.5]nonan-7-yl)benzamide] | 1920 | 7.62 | 166 | 1 |  | 1 |  |  |  | 3
9 | COc1nc2[nH]cc(F)c2cc1Oc1cc(N2CCC3(CC2)CC(N2CCN(Cc4ccc(Cl)cc4)C[C@H]2c2ccccc2C(C)C)C3)ccc1C(=O)NS(=O)(=O)c1cnc(NC[C@H]2CC[C@](C)(O)CC2)c([N+](=O)[O-])c1 [Example 230, 4-(2-((R)-4-(4-chlorobenzyl)-2-(2-isopropylphenyl)piperazin-1-yl)-7-azaspiro[3.5]nonan-7-yl)-2-((3-fluoro-6-methoxy-1H-pyrrolo[2,3-b]pyridin-5-yl)oxy)-N-((6-((((1r,4r)-4-hydroxy-4-methylcyclohexyl)methyl)amino)-5-nitropyridin-3-yl)sulfonyl)benzamide] | 3750 | 10.2 | 329 | 1 | 1 | 1 |  |  |  | 
10 | COc1nc2[nH]cc(F)c2cc1Oc1cc(N2CCC3(CC2)CC(N2CCN(Cc4ccc(F)cc4)C[C@H]2c2ccccc2C(C)C)C3)ccc1C(=O)NS(=O)(=O)c1cnc(NC[C@H]2CC[C@](C)(O)CC2)c([N+](=O)[O-])c1 [Example 233, 2-((3-fluoro-6-methoxy-1H-pyrrolo[2,3-b]pyridin-5-yl)oxy)-4-(2-((R)-4-(4-fluorobenzyl)-2-(2-isopropylphenyl)piperazin-1-yl)-7-azaspiro[3.5]nonan-7-yl)-N-((6-((((1r,4r)-4-hydroxy-4-methylcyclohexyl)methyl)amino)-5-nitropyridin-3-yl)sulfonyl)benzamide] | 3920 | 7.36 | 439 | 1 | 1 | 1 |  |  |  | 
